Patent publication US20100144725A1, “PESTICIDAL COMBINATIONS” (SYNGENTA CROP PROTECTION, INC., priority 2007, published 2010)

Legend:
Pyrenophora graminea = assay: Fungal growth assay, Pyrenophora graminea (leaf stripe of barley), microtiter plate, photometric; assay type: cell-based; conditions: 72 hrs
Experimental: The action to be expected E for a given active ingredient combination obeys the so-called COLBY formula and can be calculated as follows (COLBY, S. R. “Calculating synergistic and antagonistic responses of herbicide combination”. Weeds, Vol. 15, pages 20-22; 1967): If the action actually observed (O) is greater than the expected action (E), then the action of the combination is super-additive, i.e. there is a synergistic effect. Inhibiting of fungal growth of the following fungi are carried out by fungal growth assays (detailed below). Pyrenophora […] stripe of barley): Conidia of the fungus from cryogenic storage are directly mixed into nutrient broth (PDB potato dextrose broth). After placing a (DMSO) solution of the test compounds into a microtiter plate (96-well format) the nutrient broth containing the fungal spores is added. The test plates are incubated at 24 C and the inhibition of growth is measured photometrically after 72 hrs. The fungicide interactions in the combinations are calculated according to COLBY method, where A is thiabendazole and B is a mixture of tebuconazole and azoxystrobin in a mass ratio of 2:1. The results for A & B solo are shown in Table below and those for the combinations in a range of ratios in Table 1.

Rhizoctonia solani = assay: Fungal growth assay, Rhizoctonia solani (foot rot, damping-off), microtiter plate, photometric; assay type: cell-based; conditions: 72 hrs
Experimental: The action to be expected E for a given active ingredient combination obeys the so-called COLBY formula and can be calculated as follows (COLBY, S. R. “Calculating synergistic and antagonistic responses of herbicide combination”. Weeds, Vol. 15, pages 20-22; 1967): If the action actually observed (O) is greater than the expected action (E), then the action of the combination is super-additive, i.e. there is a synergistic effect. Inhibiting of fungal growth of the following fungi are carried out by fungal growth assays (detailed below). Rhizoctonia solani (foot rot, damping-off): Mycelial fragments of a newly grown culture of the fungus are directly mixed into nutrient broth (PDB potato dextrose broth). After placing a (DMSO) solution of the test compounds into a microtiter plate (96-well format) the nutrient broth containing the fungal spores is added. The test plates were incubated at 24 C and the inhibition of growth is measured photometrically after 72 hrs. The fungicide interactions in the combinations are calculated according to COLBY method, where C is ipconazole and D is a mixture of tebuconazole and azoxystrobin in a mass ratio of 2:1. The results for C & D solo are shown in Table below and those for the combinations in a range of ratios in Table 2.

Row | SMILES | Observed control in % (Pyrenophora graminea; A solo 0.004 ppm) [%] | Observed control in % (Pyrenophora graminea; A solo 0.008 ppm) [%] | Observed control in % (Pyrenophora graminea; A solo 0.016 ppm) [%] | Observed control in % (Pyrenophora graminea; A solo 0.031 ppm) [%] | Observed control in % (Pyrenophora graminea; A solo 0.063 ppm) [%] | Observed control in % (Pyrenophora graminea; A solo 0.125 ppm) [%] | Observed control in % (Pyrenophora graminea; A solo 0.25 ppm) [%] | Observed control in % (Pyrenophora graminea; A solo 0.5 ppm) [%] | Observed control in % (Pyrenophora graminea; A solo 1.0 ppm) [%] | Observed control in % (Pyrenophora graminea; A solo 2.0 ppm) [%] | Observed control in % (Rhizoctonia solani; C solo 0.004 ppm) [%] | Observed control in % (Rhizoctonia solani; C solo 0.008 ppm) [%] | Observed control in % (Rhizoctonia solani; C solo 0.016 ppm) [%] | Observed control in % (Rhizoctonia solani; C solo 0.031 ppm) [%] | Observed control in % (Rhizoctonia solani; C solo 0.063 ppm) [%] | Observed control in % (Rhizoctonia solani; C solo 0.125 ppm) [%] | Observed control in % (Rhizoctonia solani; C solo 0.25 ppm) [%] | Observed control in % (Rhizoctonia solani; C solo 0.5 ppm) [%] | Observed control in % (Rhizoctonia solani; C solo 1.0 ppm) [%] | Observed control in % (Rhizoctonia solani; C solo 2.0 ppm) [%]
1 | c1ccc2[nH]c(-c3cscn3)nc2c1 [A, thiabendazole] | 0 | 0 | 0 | 0 | 0 | 1 | 10 | 25 | 29 | 22 | – | – | – | – | – | – | – | – | – | –
2 | CC(C)C1CCC(Cc2ccc(Cl)cc2)C1(O)Cn1cncn1 (centres unmarked) [C, ipconazole] | – | – | – | – | – | – | – | – | – | – | 9 | 3 | 0 | 7 | 0 | 0 | 2 | 5 | 0 | 9
